Measurements taken from patent US5235045A, “Non-azo naphthalimide dyes” (priority 1992, dated 1993).
Where two headings read alike, the source gives them in different places.

Assays:
H9 cells = test: Uptake into living H9 cells; format: cell-based, human; conditions: for rate constant for uptake: 10% fetal calf serum
Protocol: For measurement, the pellet was diluted in 3 ml PBS+0.1% CTAB immediately prior to fluorescence measurement. Fluorescence measurements were made using an excitation wavelength of 451 nm, and an emission wavelength of 526 nm.
The protocol used is as above in (1), modified as below for those experiments in the presence of colchicine: Colchicine (1 mg/ml) was added to H9 cells at 5×10^.ident. cells/ml, and incubated for 1 hour. The cells were centrifuged, fresh medium was added, and 1b (25 μM) was added. Samples were taken at 0, 2, and 4 hours.

[1] = Bleaching kinetics in synthetic vesicles; format: physicochemical; conditions: 150-W xenon arc lamp, 20° C.
Protocol: The dye was incorporated into synthetic vesicles as described above. The vesicles were irradiated with a 150-W Oriel xenon arc lamp at a distance of 4 cm from the lens at a thermostated temperature of 20° C. The change in fluorescence intensity with time was determined above, and the results plotted as a standard first order plot.

[2] = tested on: Bovine Herpes Virus Type I; test: Photoinactivation of Bovine Herpes Virus Type I (CPE, TCID50); format: cell-based, Bovine Herpes Virus Type I (BHV-1); conditions: light or radiation study, 10J/cm^2; for killing at 0.035 µM / killing at 0.07 µM / killing at 0.14 µM / killing at 0.27 µM / killing at 0.54 µM / killing at 1.09 µM: read-out: % Inactivation; for killing at 0.07 µM / log reduction at 0.07 µM: 0.070 μM
Protocol: Bovine Herpes Virus Type I (BHV-1). Cell-free and serum-free virus (BHV-1 reference strain from Dr. M. L. Vickers, ADL SDSU) was purified by potassium tartrate gradient ultracentrifugation. Virus was then resuspended in minimal buffer. Compound VII was diluted with ethanol to a concentration of 5 mg/ml. The dye stock solution was prepared by sequentially adding the ethanolic dye solution to fetal bovine serum (FBS), and diluting the dye-FBS mixture with MEM to give 10% FBS in MEM, so that the final concentration of the compound was 500 ng/ml. All dilutions of the dye in the medium were made from this stock solution. Dye/virus mixtures were all prepared as 1:1 mixtures of virus and dye stock solution. The virus was incubated for 30 min at 37° C. prior to irradiation, and then irradiated using a xenon arc lamp to give 10J/cm^2 total irradiative flux. Photomodified virus was then incubated with the appropriate cells (fetal bovine lung - FBL - or MDBK) in 10% FBS in MEM for 1 hour. Then unbound virus was taken off, the cells were washed with Ca/Mg-free PBS, and the cells were then placed in 10% FBS-MEM. The cells were incubated for 24 hours at 37° C. in a 5% CO2 incubator. After 24 and 48 hours, the cells were assayed for cytophathic effect (CPE), and the results expressed in terms of using TCID50 units. The viral inactivation data are expressed in terms of % inactivation in Table 12.

[3] = tested on: Herpes simplex virus type 1; test: Effect of Ed6Br and light on aqueous suspensions of HSV-1 (plaque assay); format: cell-based, MacIntyre strain

Question: Which “rate constant for uptake” value (H9 cells; 1 μM, 4° C.) does the source give for `CCCCCCNc1ccc2c3c(cccc13)C(=O)N(CCCCCC)C2=O` [Compound 1b, 4-(hexyl)amino-N-hexyl-1,8-naphthalimide] here?
Answer: 3.5 ± 0.6 × 10^-4 s^-1

Question: And the “rate constant for uptake” value (H9 cells; 1 μM, 37° C.)?
Answer: 3.6 ± 1.7 × 10^-4 s^-1

Question: What about the “rate constant for uptake” value (H9 cells; 5 μM, 4° C.) of the same compound?
Answer: 2.7 ± 1.0 × 10^-4 s^-1

Question: What about the “rate constant for uptake” value (H9 cells; 5 μM, 37° C.) of the same compound?
Answer: 3.3 ± 0.7 × 10^-4 s^-1

Question: What about the “rate constant for uptake” value (H9 cells; 25 μM, 4° C.) of the same compound?
Answer: 2.3 ± 0.9 × 10^-4 s^-1

Question: And the “rate constant for uptake” value (H9 cells; 25 μM, 37° C.)?
Answer: 2.5 ± 0.3 × 10^-4 s^-1

Question: What about the “total uptake in presence of colchicine” value (H9 cells; 25 μM, colchicine pre-incubated 1 hour) of the same compound?
Answer: decreased

Question: What about the “slope of log/log plot of fluorescence vs. time, presence and absence of colchicine” value (H9 cells; after 2 hours, 25 μM) of the same compound?
Answer: essentially the same slope

Question: Which results are given for `CCCCCCNc1c(Br)cc2c3c(cccc13)C(=O)N(CCCCCC)C2=O` [Compound VII, 3-bromo-4-(hexyl)amino-N-hexyl-1,8-naphthalimide]?
Answer: rate constant for bleaching ([1]; 0 mol % cholesterol): 1.08 ± 0.08 × 10^-3 s^-1; rate constant for bleaching ([1]; 15 mol % cholesterol): 2.00 ± 0.13 × 10^-3 s^-1; rate constant for bleaching ([1]; 30 mol % cholesterol): 3.08 ± 0.20 × 10^-3 s^-1; rate constant for bleaching ([1]; 45 mol % cholesterol): 3.1 ± 0.9 × 10^-3 s^-1; killing at 0.035 µM ([2]; 24 h): 99.4%; log reduction at 0.035 µM ([2]; 24 h, read-out: log10 red.): 3.2; killing at 0.035 µM ([2]; 48 h): 89.9%; log reduction at 0.035 µM ([2]; 48 h, read-out: log10 red.): 0.95; killing at 0.07 µM ([2]; 24 h): 99.8%; log reduction at 0.07 µM ([2]; 24 h, read-out: log10 red.): 3.7; killing at 0.07 µM ([2]; 48 h): 98.7%; log reduction at 0.07 µM ([2]; 48 h, read-out: log10 red.): 2; killing at 0.14 µM ([2]; 24 h): > 100%; log reduction at 0.14 µM ([2]; 24 h, read-out: log10 red.): > 3.7; killing at 0.14 µM ([2]; 48 h): 99.4%; log reduction at 0.14 µM ([2]; 48 h, read-out: log10 red.): 3.2; killing at 0.27 µM ([2]; 24 h): > 100%; log reduction at 0.27 µM ([2]; 24 h, read-out: log10 red.): > 3.7; killing at 0.27 µM ([2]; 48 h): 99.4%; log reduction at 0.27 µM ([2]; 48 h, read-out: log10 red.): 3.2; killing at 0.54 µM ([2]; 0.54 μM, 24 h): > 100%; killing at 0.54 µM ([2]; 0.54 μM, 48 h): > 100%; log reduction at 0.54 µM ([2]; 0.54 μM, 48 h, read-out: log10 red.): > 3.7; log reduction at 1.09 µM ([2]; 24 h): > 3.7; killing at 1.09 µM ([2]; 24 h): > 100%; log reduction at 1.09 µM ([2]; 48 h): > 3.7; killing at 1.09 µM ([2]; 48 h): > 100%; PFU/ml ([3]; 1.25 μM, irradiated 20 J/cm2, 420 nm): 0 PFU/ml; PFU/ml ([3]; 2.5 μM, irradiated 20 J/cm2, 420 nm): 0 PFU/ml; PFU/ml ([3]; 5 μM, irradiated 20 J/cm2, 420 nm): 0 PFU/ml; PFU/ml ([3]; 10 μM, irradiated 20 J/cm2, 420 nm): 0 PFU/ml; PFU/ml ([3]; .078 μM, irradiated 20 J/cm2, 420 nm): 3.8 × 10^1 PFU/ml; PFU/ml ([3]; .156 μM, irradiated 20 J/cm2, 420 nm): 1.8 × 10^1 PFU/ml; PFU/ml ([3]; .312 μM, irradiated 20 J/cm2, 420 nm): 7.5 × 10^0 PFU/ml; PFU/ml ([3]; .625 μM, irradiated 20 J/cm2, 420 nm): 0 PFU/ml; log reduction at 1.25 µM ([3]; Human alphaherpesvirus 1, light or radiation study, 1.25 μM, irradiated 20 J/cm2, 420 nm, read-out: Log10 Reduction): 5.8; log reduction at 2.5 µM ([3]; Human alphaherpesvirus 1, light or radiation study, 2.5 μM, irradiated 20 J/cm2, 420 nm, read-out: Log10 Reduction): 5.8; log reduction at 5 µM ([3]; Human alphaherpesvirus 1, light or radiation study, 5 μM, irradiated 20 J/cm2, 420 nm, read-out: Log10 Reduction): 5.8; log reduction at 10 µM ([3]; Human alphaherpesvirus 1, light or radiation study, 10 μM, irradiated 20 J/cm2, 420 nm, read-out: Log10 Reduction): 5.8; log reduction at 0.078 µM ([3]; Human alphaherpesvirus 1, light or radiation study, .078 μM, irradiated 20 J/cm2, 420 nm, read-out: Log10 Reduction): 4.22; log reduction at 0.156 µM ([3]; Human alphaherpesvirus 1, light or radiation study, .156 μM, irradiated 20 J/cm2, 420 nm, read-out: Log10 Reduction): 4.54; log reduction at 0.312 µM ([3]; Human alphaherpesvirus 1, light or radiation study, .312 μM, irradiated 20 J/cm2, 420 nm, read-out: Log10 Reduction): 4.92; log reduction at 0.625 µM ([3]; Human alphaherpesvirus 1, light or radiation study, .625 μM, irradiated 20 J/cm2, 420 nm, read-out: Log10 Reduction): 5.8; kill of HSV-1 ([3]; as low as 0.078 mM, 420 nm, 20 J/cm2, 2.5% or less of serum proteins): > 99.99%
